Reference: ChEMBL document CHEMBL5550144, “Lysine-homologue substitution: Impact on antimicrobial activity and proteolytic stability of cationic stapled heptapeptides” (Bioorg Med Chem, 2024)
≈ marks a conversion by molar mass, not a printed value. Positions of bridges follow the written chain, without caps; N, C: chain ends. Non-standard residues stand in square brackets, D forms with d. Residues, ends and D or L forms follow the SMILES beside them. S5 = C=CCCC[C@](C)(N)C(=O)O; Nle = CCCC[C@H](N)C(=O)O; Orn = NCCC[C@H](N)C(=O)O; Dab = NCC[C@H](N)C(=O)O; Dap = NC[C@H](N)C(=O)O

Legend:
Pseudomonas aeruginosa = experiment: Antimicrobial activity against Pseudomonas aeruginosa ATCC 27853 assessed as inhibition of bacterial growth measured for 24 hrs by standard broth microdilution method; type: functional
[1] = Hemolytic activity in human Red blood cells assessed as hemolysis rate at 24 uM incubated for 30 mins by absorbance based analysis relative to control; type: toxicity, cell-based, Erythrocyte; settings: read-out: Activity
Escherichia coli = experiment: Antimicrobial activity against Escherichia coli ATCC 25922 assessed as inhibition of bacterial growth measured for 24 hrs by standard broth microdilution method; type: functional
Shigella dysenteriae = experiment: Antimicrobial activity against Shigella dysenteriae ATCC 9752 assessed as inhibition of bacterial growth measured for 24 hrs by standard broth microdilution method; type: functional
Trypsin [2] = target: T1, Trypsin (Homo sapiens, UniProt P07477+P07478+P35030); experiment: Proteolytic stability of compound assessed as trypsin (unknown origin) mediated drug degradation by measuring half life measured at 10 to 60 mins by HPLC analysis; type: ADME, protein assay; settings: time 10-60 min
Salmonella typhimurium = experiment: Antimicrobial activity against Salmonella enterica subsp. enterica serovar Typhimurium ATCC 14028 assessed as inhibition of bacterial growth measured for 24 hrs by standard broth microdilution method; type: functional
[3] = tested on: Staphylococcus epidermidis; experiment: Antimicrobial activity against Staphylococcus epidermidis ATCC 12228 assessed as inhibition of bacterial growth measured for 24 hrs by standard broth microdilution method; type: functional
Staphylococcus aureus = experiment: Antimicrobial activity against Staphylococcus aureus ATCC 6538p assessed as inhibition of bacterial growth measured for 24 hrs by standard broth microdilution method; type: functional
Trypsin [4] = target: T1, Trypsin; experiment: Proteolytic stability of compound assessed as trypsin (unknown origin) mediated drug degradation by measuring parent compound remaining measured at 10 to 60 mins by HPLC analysis; type: ADME, protein assay; settings: time 10-60 min
Klebsiella pneumoniae = experiment: Antimicrobial activity against Klebsiella pneumoniae ATCC 10031 assessed as inhibition of bacterial growth measured for 24 hrs by standard broth microdilution method; type: functional
Trypsin [5] = target: T1, Trypsin; experiment: Proteolytic stability of compound assessed as trypsin (unknown origin) mediated drug degradation measured at 10 to 60 mins by HPLC analysis; type: ADME, protein assay; settings: time 10-60 min, read-out: Drug degradation
Trypsin [6] = target: T1, Trypsin; experiment: Proteolytic stability of compound assessed as trypsin (unknown origin) mediated drug hydrolysis measured at 10 to 60 mins by HPLC analysis; type: ADME, protein assay; settings: time 10-60 min, read-out: Drug degradation

## CCCC[C@@H]1NC(=O)[C@H](CN)NC(=O)[C@H](Cc2c[nH]c3ccccc23)NC(=O)[C@@](C)(NC(=O)[C@@H](N)CN)CCC/C=C/CCC[C@@](C)(C(=O)N[C@@H](CN)C(N)=O)NC1=O (H-[Dap][S5]W[Dap][Nle][S5][Dap]-NH2; staple (E) 2-6)
Pseudomonas aeruginosa
  MIC: 50 µg/mL (≈ 60.6 µM)
[1]
  hemolysis at 0.5 h, 24 µM: 0.2%
Escherichia coli
  MIC: 25 µg/mL (≈ 30.3 µM)
Shigella dysenteriae
  MIC: 25 µg/mL (≈ 30.3 µM)
Trypsin [2]
  half-life: 6.38 h
Salmonella typhimurium
  MIC: 50 µg/mL (≈ 60.6 µM)
[3]
  MIC: 25 µg/mL (≈ 30.3 µM)
Staphylococcus aureus
  MIC: 12.5 µg/mL (≈ 15.2 µM)
Trypsin [4]
  Stability: > 90%
Klebsiella pneumoniae
  MIC: 50 µg/mL (≈ 60.6 µM)

## CCCC[C@@H]1NC(=O)[C@H](CCCCN)NC(=O)[C@H](Cc2c[nH]c3ccccc23)NC(=O)[C@@](C)(NC(=O)[C@@H](N)CCCCN)CCC/C=C/CCC[C@@](C)(C(=O)N[C@@H](CCCCN)C(N)=O)NC1=O (H-K[S5]WK[Nle][S5]K-NH2; staple (E) 2-6)
Pseudomonas aeruginosa
  MIC: 25 µg/mL (≈ 26.3 µM)
[1]
  hemolysis at 0.5 h, 24 µM: 0.5%
Escherichia coli
  MIC: 25 µg/mL (≈ 26.3 µM)
Shigella dysenteriae
  MIC: 12.5 µg/mL (≈ 13.1 µM)
Trypsin [2]
  half-life: 1.33 h
Trypsin [5]
  metabolised: > 40%
Salmonella typhimurium
  MIC: 50 µg/mL (≈ 52.6 µM)
[3]
  MIC: 6.3 µg/mL (≈ 6.62 µM)
Staphylococcus aureus
  MIC: 12.5 µg/mL (≈ 13.1 µM)
Klebsiella pneumoniae
  MIC: 50 µg/mL (≈ 52.6 µM)

## CCCC[C@@H]1NC(=O)[C@H](CCN)NC(=O)[C@H](Cc2c[nH]c3ccccc23)NC(=O)[C@@](C)(NC(=O)[C@@H](N)CCN)CCC/C=C/CCC[C@@](C)(C(=O)N[C@@H](CCN)C(N)=O)NC1=O (H-[Dab][S5]W[Dab][Nle][S5][Dab]-NH2; staple (E) 2-6)
Pseudomonas aeruginosa
  MIC: 50 µg/mL (≈ 57.7 µM)
[1]
  hemolysis at 0.5 h, 24 µM: 0.1%
Escherichia coli
  MIC: 25 µg/mL (≈ 28.8 µM)
Shigella dysenteriae
  MIC: 25 µg/mL (≈ 28.8 µM)
Trypsin [6]
  metabolised: 11%
Trypsin [2]
  half-life: 4.82 h
Salmonella typhimurium
  MIC: 50 µg/mL (≈ 57.7 µM)
[3]
  MIC: 12.5 µg/mL (≈ 14.4 µM)
Staphylococcus aureus
  MIC: 25 µg/mL (≈ 28.8 µM)
Klebsiella pneumoniae
  MIC: 50 µg/mL (≈ 57.7 µM)

## CCCC[C@@H]1NC(=O)[C@H](CCCN)NC(=O)[C@H](Cc2c[nH]c3ccccc23)NC(=O)[C@@](C)(NC(=O)[C@@H](N)CCCN)CCC/C=C/CCC[C@@](C)(C(=O)N[C@@H](CCCN)C(N)=O)NC1=O (H-[Orn][S5]W[Orn][Nle][S5][Orn]-NH2; staple (E) 2-6)
Pseudomonas aeruginosa
  MIC: 18.8 µg/mL (≈ 20.7 µM)
[1]
  hemolysis at 0.5 h, 24 µM: 0.4%
Escherichia coli
  MIC: 25 µg/mL (≈ 27.5 µM)
Shigella dysenteriae
  MIC: 12.5 µg/mL (≈ 13.7 µM)
Trypsin [6]
  metabolised: 11%
Trypsin [2]
  half-life: 4.3 h
Salmonella typhimurium
  MIC: 25 µg/mL (≈ 27.5 µM)
[3]
  MIC: 6.3 µg/mL (≈ 6.93 µM)
Staphylococcus aureus
  MIC: 12.5 µg/mL (≈ 13.7 µM)
Klebsiella pneumoniae
  MIC: 37.5 µg/mL (≈ 41.2 µM)

## C[C@@]1(C(=O)N[C@@H](CCCCN)C(N)=O)CCC/C=C/CCC[C@](C)(NC(=O)[C@@H](N)CCCCN)C(=O)N[C@@H](Cc2c[nH]c3ccccc23)C(=O)N[C@@H](CCCCN)C(=O)N[C@@H](CCC(=O)O)C(=O)N1 (H-K[S5]WKE[S5]K-NH2; staple (E) 2-6)
Pseudomonas aeruginosa
  MIC: > 100 µg/mL
[1]
  hemolysis at 0.5 h, 24 µM: < 0.1%
Escherichia coli
  MIC: > 100 µg/mL
Shigella dysenteriae
  MIC: > 100 µg/mL
Salmonella typhimurium
  MIC: > 100 µg/mL
[3]
  MIC: > 100 µg/mL
Staphylococcus aureus
  MIC: > 100 µg/mL
Klebsiella pneumoniae
  MIC: > 100 µg/mL
